In patent US9023985B2, “Glucagon composition” (Arecor Ltd., priority 2010, dated 2015):

Tests used:
[1] = Stability of glucagon in surfactant solutions at room temperature (RP-HPLC, gel formation); assay type: physicochemical; conditions: for Size of the native glucagon peak (RP-HPLC) / Changes in the native form of glucagon (RP-HPLC): glucagon dissolved with the surfactant, incubation at room temperature for days
Description: […]. In contrast, the size of the native peak diminished in the case of CHAPS to <10%) and in the case of TWEEN® 20 (to about 60%).
Formulating at pH>8 minimized the gel formation.

[2] = Visual assessment of glucagon formulations with different tonicity modifiers, 50° C. incubation; conditions: glucagon 1 mg/ml, 5 mM acetate, 0.075% benzethonium chloride, pH 5.5
Experimental: In some cases, the composition contained a specified concentration of an antioxidant. The effect of the nature and the concentration of the tonicity modifier on the physical stability (i.e., gel formation and/or aggregation) was determined by visual assessment following storage.
In the first experiment, the effects of mannitol and 1,2-propanediol as tonicity modifiers modifiers were compared at 50° C.
In another experiment, the effects of mannitol and glycerol as tonicity modifiers were compared at 50° C.
In another experiment, the effects of mannitol and trehalose as tonicity modifiers were compared at 50° C.

[3] = Visual assessment of glucagon formulations with and without phenol, 50° C. incubation; assay type: physicochemical; conditions: glucagon 1 mg/ml
Experimental: The pH of both formulations was adjusted to 5.5. […] The appearance of all formulations was noted shortly after preparation and then following storage at 50° C. for specified periods of time.

[4] = 0 days, 1.3 mM butylated hydroxytoluene
[5] = 6 weeks, 1.3 mM butylated hydroxytoluene
[6] = 6 days, 1.3 mM butylated hydroxytoluene
[7] = 50° C. for up to 6 weeks, 5 mM methionine

Q: For C[C@H](CCC(=O)NCCC[N+](C)(C)CCCS(=O)(=O)[O-])[C@H]1CC[C@H]2[C@@H]3[C@H](O)C[C@@H]4C[C@H](O)CC[C@]4(C)[C@H]3C[C@H](O)[C@]12C [CHAPS], which “Size of the native glucagon peak (RP-HPLC)” value [1] is on record?
A: < 10%

Q: For OCC(O)CO [Glycerol (250 mM), Glycerol], which “Visual assessment (50° C. incubation), extent of visible precipitation” value (“Visual assessment (50° C. incubation)” below) [2, 4] is on record?
A: 1

Q: What about the “Visual assessment (50° C. incubation)” value [2, 5] of the same compound?
A: 2

Q: And the “Visual appearance after incubation” value ([2]; 50° C. for 6 weeks, 1.3 mM butylated hydroxytoluene)?
A: signs of precipitation

Q: And the “Visual assessment (50° C. incubation)” value [2, 6]?
A: 1

Q: With OC[C@H]1O[C@H](O[C@H]2O[C@H](CO)[C@@H](O)[C@H](O)[C@H]2O)[C@H](O)[C@@H](O)[C@@H]1O [trehalose (250 and 500 mM), trehalose] as the compound, how does the “Visual appearance after incubation” value [2, 7] read?
A: remained as a clear liquid

Q: Which results are given for OC[C@@H](O)[C@@H](O)[C@H](O)[C@H](O)CO [Mannitol (250 mM), Mannitol]?
A: Visual assessment (50° C. incubation), extent of visible precipitation [2, 4]: 1; Visual assessment (50° C. incubation), extent of visible precipitation [2, 5]: 1; Visual appearance after incubation [2, 7]: remained as a clear liquid; Visual assessment (50° C. incubation), extent of visible precipitation [2, 6]: 1

Q: Which “Changes in the native form of glucagon (RP-HPLC)” value (shortened to “Changes in the native form”) [1] does the source give for CCCCCCCCCCCCCCCC[N+](C)(C)C.[Br-] [Cetrimide, cetyl trimethylammonium bromide] here?
A: no significant changes

Q: For Benzalkonium chloride, which “Changes in the native form” value [1] is on record?
A: no significant changes

Q: For CC(O)CO (stereo not drawn) [1,2-propanediol], which “Onset of aggregation and gel formation compared with mannitol” value ([2]; 50° C.) is on record?
A: much earlier onset of aggregation and gel formation

Q: For Sodium deoxycholate, which “Changes in the native form” value [1] is on record?
A: no significant changes

Q: And the “Gel formation of dissolved glucagon” value ([1]; prepared at pH 7.5, incubation at room temperature)?
A: tendency to form gels

Q: For CC(C)(C)CC(C)(C)c1ccc(OCCOCC[N+](C)(C)Cc2ccccc2)cc1 [Benzethonium chloride], which “Changes in the native form” value [1] is on record?
A: no significant changes

Q: For Oc1ccccc1 [phenol], which “Gel formation and/or aggregation on incubation” value [3] is on record?
A: delay aggregation and gel formation considerably farther

Q: With TWEEN ® 20 as the compound, how does the “Size of the native glucagon peak (RP-HPLC)” value [1] read?
A: about 60%
